The values below come from ChEMBL document CHEMBL5331135, “Design, Synthesis, and Evaluation of Glucose Transporter Inhibitor-SN38 Conjugates for Targeting Colorectal Cancer” (J Med Chem, 2023).

Series [1] in a line: Prodrug conversion in lung of BALB/c mouse assessed as SN38 release at 40 mg/kg, iv measured after 4 hrs by UHPLC-MS/MS analysis. It counts as ADME, organism-based. Conditions: in vivo; call rule not given here.
Series [2] in a line: Toxicity in AOM/DSS-induced orthotopic CRC BALB/c mouse model assessed as lesions in heart at 20 to 40 mg/kg, iv administered once every 2 days for 2 weeks by H&E staining based analysis. It counts as organism-based. To be noted: in vivo, 336 h, dose 20-40 mg/kg.
The subject of another series is HT-29. Briefly: Cytotoxicity against human HT-29 cells incubated for 48 hrs by SRB assay. It counts as functional, cell-based. Conditions: HT-29, 48 h.
A short description of series [3]: Prodrug conversion in buffer assessed as SN38 release at 1 uM measured for 2 hrs by UHPLC-MS/MS analysis. It counts as ADME.
A short description of series [4]: Stability in human plasma assessed as formation of carboxylate product measured for 72 hrs by RP-HPLC analysis. It counts as ADME, cell-free.
A short description of series [5]: Toxicity in AOM/DSS-induced orthotopic CRC BALB/c mouse model assessed as body weight loss at 40 mg/kg, iv administered once every 2 days for 2 weeks. Conditions: in vivo, 336 h. It counts as organism-based.
Series [6] in a line: Toxicity in AOM/DSS-induced orthotopic CRC BALB/c mouse model assessed as lesions in liver at 20 to 40 mg/kg, iv administered once every 2 days for 2 weeks by H&E staining based analysis. It counts as organism-based. Conditions: in vivo, 336 h, dose 20-40 mg/kg.
The test system of the next series is Colorectal cancer cell. In words: Antitumor activity against AOM/DSS-induced orthotopic CRC BALB/c mouse model assessed as reduction in tumor area administered intravenously once every 2 days for 2 weeks by dissecting microscopic analysis. It counts as functional. Conditions: dose 20-40 mg/kg, route iv.
A further series concerns HCT-116. In words: Cytotoxicity against human HCT-116 cells incubated for 48 hrs by SRB assay. It counts as functional, cell-based. Conditions: HCT-116, 48 h.
A short description of series [7]: Toxicity in AOM/DSS-induced orthotopic CRC BALB/c mouse model assessed as lesions in kidney at 20 to 40 mg/kg, iv administered once every 2 days for 2 weeks by H&E staining based analysis. To be noted: in vivo, 336 h, dose 20-40 mg/kg. It counts as organism-based.
The nature of series [8]: Toxicity in AOM/DSS-induced orthotopic CRC BALB/c mouse model assessed as lesions in stomach at 20 to 40 mg/kg, iv administered once every 2 days for 2 weeks by H&E staining based analysis. It counts as organism-based. To be noted: in vivo, 336 h, dose 20-40 mg/kg.
A short description of series [9]: Antitumor activity against AOM/DSS-induced orthotopic CRC BALB/c mouse model assessed as reduction in tumor area at 40 mg/kg, iv administered once every 2 days for 2 weeks by dissecting microscopic analysis relative to control. It counts as functional, Colorectal cancer cell. More on the design: scale not given: the % may be the effect or the level left.
Series [10] in a line: Toxicity in AOM/DSS-induced orthotopic CRC BALB/c mouse model assessed as lesions in spleen at 20 to 40 mg/kg, iv administered once every 2 days for 2 weeks by H&E staining based analysis. It counts as organism-based. To be noted: in vivo, 336 h, dose 20-40 mg/kg.
The nature of series [11]: Drug uptake in human COLO 205 cells assessed as drug internalization in presence of 4.5 g/L glucose by fluorescence based assay. It counts as ADME, cell-based.
A short description of series [12]: Stability in human plasma assessed as half life by RP-HPLC analysis. It counts as ADME, cell-free.
Series [13] is described as follows: Toxicity in AOM/DSS-induced orthotopic CRC BALB/c mouse model assessed as lesions in lung at 20 to 40 mg/kg, iv administered once every 2 days for 2 weeks by H&E staining based analysis. It counts as organism-based. Conditions: in vivo, 336 h, dose 20-40 mg/kg.
For the next series, the system named is COLO 205. In words: Cytotoxicity against human COLO 205 cells incubated for 48 hrs by SRB assay. It counts as functional, cell-based. Conditions: COLO 205, 48 h.
A short description of series [14]: Biodistribution in brain of BALB/c mouse at 20 mg/kg, ip measured after 4 hrs by UHPLC-MS/MS analysis. It counts as ADME, organism-based. To be noted: in vivo.
Series [15] is described as follows: Prodrug conversion in liver of BALB/c mouse assessed as SN38 release at 20 mg/kg, ip measured after 4 hrs by UHPLC-MS/MS analysis. Conditions: in vivo. It counts as ADME, organism-based.
The nature of series [16]: Prodrug conversion in liver of BALB/c mouse assessed as SN38 release at 40 mg/kg, iv measured after 4 hrs by UHPLC-MS/MS analysis. It counts as ADME, organism-based. Conditions: in vivo.
Series [17] is described as follows: Biodistribution in liver of BALB/c mouse at 20 mg/kg, ip measured after 4 hrs by UHPLC-MS/MS analysis. It counts as ADME, organism-based. To be noted: in vivo.
A short description of series [18]: Drug concentration in tumor of BALB/c mouse at 40 mg/kg, iv measured after 4 hrs by UHPLC-MS/MS analysis. It counts as ADME, organism-based, Neoplasm. To be noted: in vivo.
Series [19] in a line: Prodrug conversion in intestine of BALB/c mouse assessed as SN38 release at 20 mg/kg, ip measured after 4 hrs by UHPLC-MS/MS analysis. It counts as ADME, organism-based. To be noted: in vivo.
The nature of series [20]: Biodistribution in spleen of BALB/c mouse at 20 mg/kg, ip measured after 4 hrs by UHPLC-MS/MS analysis. It counts as ADME, organism-based. Conditions: in vivo.
Series [21] is described as follows: Prodrug conversion in spleen of BALB/c mouse assessed as SN38 release at 20 mg/kg, ip measured after 4 hrs by UHPLC-MS/MS analysis. It counts as ADME, organism-based. To be noted: in vivo.
Series [22] in a line: Prodrug conversion in heart of BALB/c mouse assessed as SN38 release at 20 mg/kg, ip measured after 4 hrs by UHPLC-MS/MS analysis. To be noted: in vivo. It counts as ADME, organism-based.
Series [23] in a line: Prodrug conversion in kidney of BALB/c mouse assessed as SN38 release at 20 mg/kg, ip measured after 4 hrs by UHPLC-MS/MS analysis. It counts as ADME, organism-based. To be noted: in vivo.
Series [24] can be described thus: Prodrug conversion in brain of BALB/c mouse assessed as SN38 release at 20 mg/kg, ip measured after 4 hrs by UHPLC-MS/MS analysis. It counts as ADME, organism-based. Conditions: in vivo.
A short description of series [25]: Prodrug conversion in tumor of BALB/c mouse assessed as SN38 release at 20 mg/kg, ip measured after 4 hrs by UHPLC-MS/MS analysis. To be noted: in vivo. It counts as ADME, organism-based, Neoplasm.
Series [26] in a line: Drug concentration in spleen of BALB/c mouse at 40 mg/kg, iv measured after 4 hrs by UHPLC-MS/MS analysis. It counts as ADME, organism-based. To be noted: in vivo.
Series [27] in a line: Toxicity in AOM/DSS-induced orthotopic CRC BALB/c mouse model assessed as body weight loss at 20 mg/kg, ip administered every other day for 2 weeks. It counts as organism-based. Conditions: in vivo, 336 h.
The nature of series [28]: Prodrug conversion in lung of BALB/c mouse assessed as SN38 release at 20 mg/kg, ip measured after 4 hrs by UHPLC-MS/MS analysis. It counts as ADME, organism-based. Conditions: in vivo.
A short description of series [29]: Drug concentration in liver of BALB/c mouse at 40 mg/kg, iv measured after 4 hrs by UHPLC-MS/MS analysis. To be noted: in vivo. It counts as ADME, organism-based.
Series [30] is described as follows: Drug concentration in brain of BALB/c mouse at 40 mg/kg, iv measured after 4 hrs by UHPLC-MS/MS analysis. It counts as ADME, organism-based. To be noted: in vivo.
Series [31] is described as follows: Drug concentration in heart of BALB/c mouse at 40 mg/kg, iv measured after 4 hrs by UHPLC-MS/MS analysis. It counts as ADME, organism-based. Conditions: in vivo.
A short description of series [32]: Prodrug conversion in tumor of BALB/c mouse assessed as SN38 release at 40 mg/kg, iv measured after 4 hrs by UHPLC-MS/MS analysis. It counts as ADME, organism-based, Neoplasm. Conditions: in vivo.
A short description of series [33]: Biodistribution in gastrointestinal tract of BALB/c mouse at 20 mg/kg, ip measured after 4 hrs by UHPLC-MS/MS analysis. It counts as ADME, organism-based. To be noted: in vivo.
Series [34] in a line: Biodistribution in heart of BALB/c mouse at 20 mg/kg, ip measured after 4 hrs by UHPLC-MS/MS analysis. It counts as ADME, organism-based. Conditions: in vivo.
A short description of series [35]: Drug concentration in intestine of BALB/c mouse at 40 mg/kg, iv measured after 4 hrs by UHPLC-MS/MS analysis. It counts as ADME, organism-based. Conditions: in vivo.
Series [36] in a line: Biodistribution in colorectal tumor site of BALB/c mouse at 20 mg/kg, ip measured after 4 hrs by UHPLC-MS/MS analysis. It counts as ADME, organism-based, Neoplasm. Conditions: in vivo.
Series [37] in a line: Drug concentration in kidney of BALB/c mouse at 40 mg/kg, iv measured after 4 hrs by UHPLC-MS/MS analysis. To be noted: in vivo. It counts as ADME, organism-based.
Series [38] in a line: Drug concentration in stomach of BALB/c mouse at 40 mg/kg, iv measured after 4 hrs by UHPLC-MS/MS analysis. It counts as ADME, organism-based. Conditions: in vivo.
Series [39] is described as follows: Prodrug conversion in stomach of BALB/c mouse assessed as SN38 release at 20 mg/kg, ip measured after 4 hrs by UHPLC-MS/MS analysis. It counts as ADME, organism-based. To be noted: in vivo.

For `CCc1c2c(nc3ccc(OCc4ccc(NC(=O)[C@H](CCCNC(N)=O)NC(=O)[C@@H](NC(=O)CCCCN5C(=O)CC(SCCOCCOCCOc6cc(O)c(C(=O)CCc7ccc(O)cc7)c(O)c6)C5=O)C(C)C)cc4)cc13)-c1cc3c(c(=O)n1C2)COC(=O)[C@]3(O)CC` (some centres not stated), the Drug metabolism entry in [1] is “Metabolite_Notdetected”; in [3], “Not Active”. The Activity result in series [2] was “Non-Toxic”; in series [5], “Non-Toxic”; in [6] it was “Non-Toxic”; in the series on Colorectal cancer cell it was “Dose-Dependent Effect”; in [7], “Non-Toxic”; in [8], “Non-Toxic”. The values for the Activity in series [9], in series [10] and in series [13] were 75%, “Non-Toxic” and “Non-Toxic”, respectively. Moreover, the results for the IC50 in the series on HT-29, with HCT-116 and in the series on COLO 205 were greater than 100 µM, 7.43 µM and 4.59 µM, respectively. For the same compound, in [4], the Stability result is reported as “Stable”. Moreover, in [11], the Drug uptake entry was “Active”. Besides, in [12], the half-life is 36 h.
As for `CCc1c2c(nc3ccc(OC(=O)N4CCC(N5CCCCC5)CC4)cc13)-c1cc3c(c(=O)n1C2)COC(=O)[C@]3(O)CC` [IRINOTECAN], the Drug uptake entry in series [14], in series [17], in series [20], in series [33], in [34] and in [36] was “Active” throughout. Also, the Drug metabolism entry in [15], in series [16], in [19], in series [21], in [22] and in series [23] was “Metabolite_Detected” each time. For the same compound, the Drug metabolism result in series [24], in series [25], in [28], in [32] and in series [39] was “Metabolite_Detected” each time. Further, the Ct entry in series [18], in [26], in [29], in series [30], in series [31] and in series [35] was “Active” throughout. Also, the Ct result in series [37] and in series [38] was “Active” in each case. Also, the results for the IC50 with HT-29, in the series with HCT-116 and in the series on COLO 205 were 8.51 µM, 3.69 µM and 9.9 µM, respectively. Also, the Activity result in [27] and in series [5] was “Non-Toxic” each time.
